We go through 18 molecules from US11731943B2, “Therapeutic compounds, compositions and methods of use thereof” (priority 2016, dated 2023).

Like-named read-outs stand apart in the source and are kept apart here.

Experiment [1] has as its target isolated recombinant JAK1 kinase domain (Homo sapiens (Human), UniProt P23458). Kind of experiment: JAK1 enzyme assay (Caliper LabChip, Ki). The class given is biochemical. The protocol:
(§1) JAK Enzyme Assays were carried out as follows:
(§2) The activity of the isolated recombinant JAK1 and JAK2 kinase domain was measured by monitoring phosphorylation of a peptide derived from JAK3 (Val-Ala-Leu-Val-Asp-Gly-Tyr-Phe-Arg-Leu-Thr-Thr, fluorescently labeled on the N-terminus with 5-carboxyfluorescein) using the Caliper LabChip® technology (Caliper Life Sciences, Hopkinton, Mass.). […] Reactions were incubated at 22° C. in 384-well polypropylene microtiter plates for 30 minutes and then stopped by addition of 25 μL of an EDTA containing solution (100 mM HEPES buffer (pH 7.2), 0.015% Brij-35, 150 mM EDTA), resulting in a final EDTA concentration of 50 mM. After termination of the kinase reaction, the proportion of phosphorylated product was determined as a fraction of total peptide substrate using the Caliper LabChip® 3000 according to the manufacturer's specifications. Ki values were then determined using the Morrison tight binding model (Morrison, J. F., Biochim. Biophys. Acta. 185:269-296 (1969); William, J. W. and Morrison, J. F., Meth. Enzymol., 63:437-467 (1979)) modified for ATP-competitive inhibition [Ki=Ki,app/(1+[ATP]/Km,app)].

The target of experiment [2] is isolated recombinant JAK2 kinase domain (Homo sapiens (Human), UniProt O60674). Kind of experiment: JAK2 enzyme assay (Caliper LabChip, Ki). The class given is biochemical. The protocol: as §1
isolated recombinant JAK2 kinase domain, sequence (O60674 849-1124): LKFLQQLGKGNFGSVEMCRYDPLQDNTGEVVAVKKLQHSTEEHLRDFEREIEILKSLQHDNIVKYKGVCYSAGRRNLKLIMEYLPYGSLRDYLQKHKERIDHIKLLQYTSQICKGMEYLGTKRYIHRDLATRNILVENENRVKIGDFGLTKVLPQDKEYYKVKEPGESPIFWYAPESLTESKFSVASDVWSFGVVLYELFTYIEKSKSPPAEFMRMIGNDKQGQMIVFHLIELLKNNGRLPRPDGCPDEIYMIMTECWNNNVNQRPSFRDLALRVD
as §2, with “([…]” for “(Val-Ala-Leu-Val-Asp-Gly-Tyr-Phe-Arg-Leu-Thr-Thr,”, “specifications.” for “specifications. Ki values were then determined using the Morrison tight binding model (Morrison, J. F., Biochim. Biophys. Acta. 185:269-296 (1969); William, J. W. and Morrison, J. F., Meth. Enzymol., 63:437-467 (1979)) modified for ATP-competitive inhibition [Ki=Ki,app/(1+[ATP]/Km,app)].”

isolated recombinant JAK1 kinase domain, sequence (P23458 875-1153): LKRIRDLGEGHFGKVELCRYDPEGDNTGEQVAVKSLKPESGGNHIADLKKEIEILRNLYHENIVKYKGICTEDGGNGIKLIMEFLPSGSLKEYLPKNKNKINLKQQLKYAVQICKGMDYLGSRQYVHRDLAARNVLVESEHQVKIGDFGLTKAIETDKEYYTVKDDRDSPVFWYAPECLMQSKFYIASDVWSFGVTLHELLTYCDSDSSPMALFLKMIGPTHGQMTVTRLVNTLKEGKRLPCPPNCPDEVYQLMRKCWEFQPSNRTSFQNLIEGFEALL

Take `N#CCC1(n2cc(C(N)=O)c(NC(=O)C3CC3)n2)CCN(Cc2ccc(N3CCCC3)cc2)CC1` [Example 84]: the Ki is 85 nM in experiment [1] (read-out: JAK1 Ki) and over 319 nM in experiment [2].
In the case of `N#CC[C@]1(n2cc(C(N)=O)c(NC(=O)C3CC3)n2)CC[C@H](N2CC(F)(F)C2)CC1` [Example 179, 1-[1-(cyanomethyl)-4-(3,3-difluoroazetidin-1-yl)cyclohexyl]-3-(cyclopropanecarbonylamino) pyrazole-4-carboxamide], the Ki in experiment [1] is over 562 nM; in experiment [2], over 319 nM.
As to `N#CCC1(n2cc(C(N)=O)c(NC(=O)C3CC3)n2)CCN(C(CO)c2ccccc2)CC1` (stereo not drawn) [Example 19, 1-(4-(Cyanomethyl)-1-(2-hydroxy-1-phenylethyl)piperidin-4-yl)-3-(cyclopropanecarboxamido)-1H-pyrazole-4-carboxamide], the Ki is 69.3 nM in experiment [1] and over 319 nM in experiment [2].
As to `N#CCC1(n2cc(C(N)=O)c(NC(=O)[C@H]3C[C@H]3F)n2)CCN(CC(F)(F)F)CC1` [Example 29], the results for the Ki in experiment [1] (read-out: JAK1 Ki) and in experiment [2] were 10.1 nM and 11.9 nM, respectively.
With `N#CCC1(n2cc(C(N)=O)c(NC(=O)C3CC3)n2)CCN(Cc2ccccc2-c2ccccc2)CC1` [Example 38], the results for the Ki in experiment [1] (read-out: JAK1 Ki) and in experiment [2] were 8.1 nM and 107 nM, respectively.
For `N#CCC1(n2cc(C(N)=O)c(NC(=O)C3CC3)n2)CCN(Cc2ccc(-c3cccnc3)cc2)CC1` [Example 158], in that order: 8 nM and 39.4 nM.
Turning to `N#CCC1(n2cc(C(N)=O)c(NC(=O)C3CC3)n2)CCCCC1` [Example 33], the Ki came to 15.6 nM in experiment [1] (read-out: JAK1 Ki) and 76.5 nM in experiment [2].
Take `COC(=O)Nc1nn(C2(CC#N)CCN(CC(F)(F)F)CC2)cc1C(N)=O` [Example 4, Methyl (4-carbamoyl-1-(4-(cyanomethyl)-1-(2,2,2-trifluoroethyl)piperidin-4-yl)-1H-pyrazol-3-yl)carbamate]: the inhibition constant Ki in experiment [1] (read-out: JAK1 Ki) amounted to 8.2 nM; in experiment [2], 34.5 nM.
In the case of `N#CCC1(n2cc(C(N)=O)c(NC(=O)C3CC3)n2)CCN(Cc2ccccc2C(F)(F)F)CC1` [Example 61], the Ki in experiment [1] (read-out: JAK1 Ki) is 8.3 nM; in experiment [2], 118 nM.
Turning to `N#CC[C@]1(n2cc(C(N)=O)c(NC(=O)C3CC3)n2)CC[C@@H](NCc2ccc(F)cc2)CC1` [Example 116], the figures for the Ki in experiment [1] and in experiment [2] were 164 nM and over 319 nM, respectively.
For `N#CC[C@]1(n2cc(C(N)=O)c(NC(=O)C3CC3)n2)CC[C@@H](NCc2ccccc2F)CC1` [Example 112] the same measures were over 562 nM and over 319 nM.
For `N#CC[C@]1(n2cc(C(N)=O)c(NC(=O)C3CC3)n2)CC[C@H](NCc2ccc(-c3ccccc3)cc2)CC1` [Example 127] the same measures were over 562 nM and over 319 nM.
Turning to `N#CC[C@]1(n2cc(C(N)=O)c(NC(=O)C3CC3)n2)CC[C@@H](N2CC(C(F)(F)F)C2)CC1` (single isomer, unassigned) [Example 7], the results for the inhibition constant Ki in experiment [1] (read-out: JAK1 Ki) and in experiment [2] were over 562 nM and over 319 nM, respectively.
Take `N#CCC1(n2cc(C(N)=O)c(NC(=O)C3CC3)n2)CCN(Cc2cccc(OC(F)(F)F)c2)CC1` [Example 48]: the Ki in experiment [1] (read-out: JAK1 Ki) came out at 27.7 nM; in experiment [2], 189 nM.
`N#CC[C@]1(n2cc(C(N)=O)c(NC(=O)C3CC3)n2)CC[C@@H](NCCC(F)(F)F)CC1` [Example 126]: the Ki is 188 nM in experiment [1] and over 319 nM in experiment [2].
Consider `CC(F)(F)C(=O)N1CCC(CC#N)(n2cc(C(N)=O)c(NC(=O)C3CC3)n2)CC1` [Example 171, 1-[4-(cyanomethyl)-1-(2,2-difluoropropanoyl)-4-piperidyl]-3-(cyclopropanecarbonylamino) pyrazole-4-carboxamide], for which the Ki in experiment [1] (read-out: JAK1 Ki) was determined as 6.6 nM; in experiment [2], 30.3 nM.
Take `CN(CC(F)(F)F)[C@H]1CC[C@@](CC#N)(n2cc(C(N)=O)c(NC(=O)C3CC3)n2)CC1` [Example 130]: the Ki was over 562 nM in experiment [1] and over 319 nM in experiment [2].
For `N#CCC1(n2cc(C(N)=O)c(NC(=O)C3CC3)n2)CCN(Cc2ccccc2I)CC1` [Example 53], the values for the Ki in experiment [1] (read-out: JAK1 Ki) and in experiment [2] were 7.1 nM and 101 nM, respectively.

As a reminder, the Ki is the dissociation constant of the complex between target and ligand, obtained from inhibition or displacement.
